The IC50 is the concentration needed to halve the response being measured.

The source made the active and inactive calls. The rule behind the calls is not given here.

One compound from ChEMBL document CHEMBL5150060 (J Med Chem, 2022) can be followed below.

One data set has as its target Histone deacetylase 2 (Homo sapiens, UniProt Q92769). Briefly: Inhibition of recombinant human HDAC2 using p53 (Ac-RHKK(Acetyl)-AMC) as substrate preincubated for 5 mins followed by substrate addition and measured after 30 mins by fluorescence based analysis.
For data set [1], the target named is T1, Histone deacetylase 8 (Homo sapiens) (UniProt Q9BY41).
T1 sequence (whole entry): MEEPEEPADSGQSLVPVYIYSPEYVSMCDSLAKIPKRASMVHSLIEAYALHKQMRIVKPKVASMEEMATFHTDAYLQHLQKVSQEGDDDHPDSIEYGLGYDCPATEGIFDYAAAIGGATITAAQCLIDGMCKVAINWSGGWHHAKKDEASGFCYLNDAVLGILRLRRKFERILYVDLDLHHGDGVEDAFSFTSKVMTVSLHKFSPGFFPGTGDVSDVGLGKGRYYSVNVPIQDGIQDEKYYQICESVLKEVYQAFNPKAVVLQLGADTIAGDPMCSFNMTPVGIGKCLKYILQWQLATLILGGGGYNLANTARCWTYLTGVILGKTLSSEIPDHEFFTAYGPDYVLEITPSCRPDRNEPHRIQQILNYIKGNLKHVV
Briefly: Inhibition of HDAC8 in human Jurkat T cells assessed as upregulation of IL10 expression at 10 uM after 6 to 12 hrs by RT-qPCR analysis. The format is cell-based. The conditions noted are these: time 6-12 hrs. (In qPCR the cycle at which signal appears reflects the starting amount.)

Data set [2] is described as follows: Toxicity in C57BL/6 mouse assessed as change in body weight at 5 to 10 mg/kg, ip administered 5 days per week for 2 weeks. The format is organism-based. The conditions noted are these: in vivo, 336 h, dose 5-10 mg/kg.
The target of data set [3] is T2, Protein deacetylase HDAC6 (Homo sapiens, UniProt Q9UBN7).
T2 sequence (Q9UBN7 whole entry): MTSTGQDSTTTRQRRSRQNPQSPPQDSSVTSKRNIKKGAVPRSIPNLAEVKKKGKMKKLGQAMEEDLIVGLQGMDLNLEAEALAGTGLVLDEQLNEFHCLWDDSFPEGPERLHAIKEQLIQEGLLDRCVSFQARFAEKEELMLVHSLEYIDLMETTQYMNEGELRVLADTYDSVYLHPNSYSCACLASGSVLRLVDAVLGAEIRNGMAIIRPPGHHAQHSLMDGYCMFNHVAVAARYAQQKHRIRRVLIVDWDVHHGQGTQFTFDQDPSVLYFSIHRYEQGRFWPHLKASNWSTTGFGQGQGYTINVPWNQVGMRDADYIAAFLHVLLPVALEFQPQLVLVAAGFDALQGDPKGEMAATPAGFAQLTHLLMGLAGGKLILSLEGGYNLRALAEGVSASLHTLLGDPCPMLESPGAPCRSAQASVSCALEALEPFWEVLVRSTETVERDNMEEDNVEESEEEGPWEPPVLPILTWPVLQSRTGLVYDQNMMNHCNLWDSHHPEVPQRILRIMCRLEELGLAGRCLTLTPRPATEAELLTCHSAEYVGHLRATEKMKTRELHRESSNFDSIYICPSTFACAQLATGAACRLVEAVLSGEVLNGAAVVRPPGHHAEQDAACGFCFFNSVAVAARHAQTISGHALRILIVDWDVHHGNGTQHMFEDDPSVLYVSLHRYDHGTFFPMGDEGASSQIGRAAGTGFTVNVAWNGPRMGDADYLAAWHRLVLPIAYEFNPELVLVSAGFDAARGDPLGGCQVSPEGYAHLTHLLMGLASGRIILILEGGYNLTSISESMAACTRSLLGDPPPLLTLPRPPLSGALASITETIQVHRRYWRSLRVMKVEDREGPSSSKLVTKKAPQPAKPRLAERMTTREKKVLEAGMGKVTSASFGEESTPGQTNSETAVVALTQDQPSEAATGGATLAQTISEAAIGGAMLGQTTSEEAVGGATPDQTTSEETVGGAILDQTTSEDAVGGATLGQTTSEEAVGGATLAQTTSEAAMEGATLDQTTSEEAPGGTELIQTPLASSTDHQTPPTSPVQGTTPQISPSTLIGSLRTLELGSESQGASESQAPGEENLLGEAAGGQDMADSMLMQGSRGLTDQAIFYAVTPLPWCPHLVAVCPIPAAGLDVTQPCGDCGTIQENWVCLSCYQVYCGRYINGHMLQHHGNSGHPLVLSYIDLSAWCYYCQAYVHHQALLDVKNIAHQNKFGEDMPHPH
Put plainly: Inhibition of recombinant human HDAC6 (unknown origin).

Data set [4] deals with T1, Histone deacetylase 8 (Homo sapiens). Put plainly: Inhibition of HDAC8 in human Jurkat T cells assessed as upregulation of IL23 expression at 10 uM after 6 to 12 hrs by RT-qPCR analysis. The note with it: time 6-12 hrs. The format is cell-based.
For data set [5] the target is unchanged. Put plainly: Inhibition of HDAC8 in human Jurkat T cells assessed as upregulation of IL5 expression at 10 uM after 6 to 12 hrs by RT-qPCR analysis. It is filed as cell-based. The conditions noted are these: time 6-12 hrs.
For a further data set, the target named is Histone deacetylase 1 (Homo sapiens, UniProt Q13547). Briefly: Inhibition of recombinant human HDAC1 using p53 (Ac-RHKK(Acetyl)-AMC) as substrate preincubated for 5 mins followed by substrate addition and measured after 90 mins by fluorescence based analysis.
Chain of Histone deacetylase 1 (Q13547 whole entry): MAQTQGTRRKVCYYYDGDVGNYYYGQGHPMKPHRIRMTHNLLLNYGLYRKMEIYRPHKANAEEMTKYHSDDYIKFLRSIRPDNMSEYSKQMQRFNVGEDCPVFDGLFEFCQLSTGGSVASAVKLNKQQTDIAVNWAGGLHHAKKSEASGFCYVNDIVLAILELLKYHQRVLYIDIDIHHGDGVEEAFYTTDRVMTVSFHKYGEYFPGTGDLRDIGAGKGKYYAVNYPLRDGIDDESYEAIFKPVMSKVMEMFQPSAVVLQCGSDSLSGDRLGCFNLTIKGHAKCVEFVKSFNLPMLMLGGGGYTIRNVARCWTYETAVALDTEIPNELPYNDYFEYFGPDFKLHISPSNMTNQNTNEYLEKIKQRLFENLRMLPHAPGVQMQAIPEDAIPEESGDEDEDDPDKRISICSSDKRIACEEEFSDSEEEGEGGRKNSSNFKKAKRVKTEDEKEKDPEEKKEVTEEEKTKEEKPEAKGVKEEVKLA
Data set [6] concerns the target T1, Histone deacetylase 8 (Homo sapiens). Briefly: Reversible binding affinity to recombinant human HDAC8 incubated for 30 mins by jump dilution method.
Data set [7] can be described thus: Stability of compound in DMEM/DMSO/acetonitrile at pH 7.4 measured after 72 hrs by HPLC analysis. The conditions noted are these: read-out: Stability. It is filed as physicochemical.
Data set [8] deals with T1, Histone deacetylase 8 (Homo sapiens). Briefly: Inhibition of HDAC8 in human Jurkat T cells assessed as upregulation of […] expression at 10 uM after 6 to 12 hrs by RT-qPCR analysis. The conditions noted are these: time 6-12 hrs. The format is cell-based.
Data set [9] has as its system Mus musculus. Briefly: Immuno-modulatory activity in C57BL/6 mouse assessed as increase in proportion of CD8+ cells in spleen at 10 mg/kg, ip administered 5 days per week for 2 weeks by flow cytometry analysis. It is filed as functional, organism-based. In general terms: A flow cytometer gives signals particle by particle.
In a further data set the target is Histone deacetylase 4 (Homo sapiens, UniProt P56524). Briefly: Inhibition of HDAC4 (unknown origin).
Chain of Histone deacetylase 4 (P56524 whole entry): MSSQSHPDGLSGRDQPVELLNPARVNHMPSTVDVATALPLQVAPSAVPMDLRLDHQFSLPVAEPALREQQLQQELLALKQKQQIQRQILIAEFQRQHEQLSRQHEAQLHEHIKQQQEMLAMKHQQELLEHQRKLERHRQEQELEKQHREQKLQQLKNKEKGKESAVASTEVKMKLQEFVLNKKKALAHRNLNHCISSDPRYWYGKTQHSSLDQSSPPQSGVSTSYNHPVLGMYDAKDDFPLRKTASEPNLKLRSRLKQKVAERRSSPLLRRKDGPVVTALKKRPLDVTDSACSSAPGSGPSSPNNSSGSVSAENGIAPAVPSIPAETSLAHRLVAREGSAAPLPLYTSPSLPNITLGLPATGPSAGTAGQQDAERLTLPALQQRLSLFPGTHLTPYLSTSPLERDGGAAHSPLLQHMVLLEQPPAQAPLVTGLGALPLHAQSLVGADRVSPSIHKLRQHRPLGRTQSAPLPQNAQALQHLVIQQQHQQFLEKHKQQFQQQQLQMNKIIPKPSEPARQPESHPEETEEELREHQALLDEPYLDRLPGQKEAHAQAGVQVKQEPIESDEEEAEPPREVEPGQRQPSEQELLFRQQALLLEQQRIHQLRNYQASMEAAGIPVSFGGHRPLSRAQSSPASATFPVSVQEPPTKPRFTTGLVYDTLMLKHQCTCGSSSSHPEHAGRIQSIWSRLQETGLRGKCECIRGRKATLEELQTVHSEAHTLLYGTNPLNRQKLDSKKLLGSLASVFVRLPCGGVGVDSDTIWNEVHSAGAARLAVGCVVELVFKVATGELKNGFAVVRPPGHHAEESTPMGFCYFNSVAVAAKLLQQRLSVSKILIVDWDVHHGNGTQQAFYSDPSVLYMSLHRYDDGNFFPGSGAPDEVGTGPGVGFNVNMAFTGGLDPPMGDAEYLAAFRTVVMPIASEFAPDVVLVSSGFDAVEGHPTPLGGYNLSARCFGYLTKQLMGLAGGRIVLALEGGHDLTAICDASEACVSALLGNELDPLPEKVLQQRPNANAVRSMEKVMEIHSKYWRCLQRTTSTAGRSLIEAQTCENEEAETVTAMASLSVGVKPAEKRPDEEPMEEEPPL
The target in data set [10] is T1, Histone deacetylase 8 (Homo sapiens). Put plainly: Inhibition of HDAC8 in human Jurkat T cells assessed as upregulation of KLRG1 expression after 6 hrs by RT-qPCR analysis. The format is cell-based. The conditions noted are these: dose 0.1-10 µM, DDE = dose-dependent effect.
Data set [11] shares this target. Put plainly: Inhibition of HDAC8 in human Jurkat T cells assessed as upregulation of EOMES expression after 6 hrs by RT-qPCR analysis. The format is cell-based. The note with it: dose 0.1-10 µM, DDE = dose-dependent effect.
The nature of data set [12]: Toxicity in C57BL/6 mouse assessed as change in lung weight at 5 to 10 mg/kg, ip administered 5 days per week for 2 weeks by H and E staining based assay. It is filed as organism-based. The note with it: in vivo, 336 h, dose 5-10 mg/kg.
In data set [13] the test system is Mus musculus. Put plainly: Immuno-modulatory activity in C57BL/6 mouse assessed as increase in IL2 expression in CD4+ cells at 10 mg/kg, ip administered 5 days per week for 2 weeks by RT-qPCR analysis. It is filed as functional, organism-based.
Data set [14] concerns the target T1, Histone deacetylase 8 (Homo sapiens). Put plainly: Inhibition of HDAC8 in human Jurkat T cells assessed as upregulation of EOMES expression at 10 uM after 6 to 12 hrs by RT-qPCR analysis. The format is cell-based. The conditions noted are these: time 6-12 hrs.
Data set [15] has the same target. Put plainly: Inhibition of HDAC8 in human Jurkat T cells assessed as upregulation of PRDM1 expression after 6 hrs by RT-qPCR analysis. The format is cell-based. The note with it: dose 0.1-10 µM, DDE = dose-dependent effect.
Data set [16] is described as follows: Stability of compound in DMEM/DMSO/acetonitrile at pH 7.4 measured after 48 hrs by HPLC analysis. The format is physicochemical. The note with it: read-out: Stability.

Chain of Histone deacetylase 2 (Q92769 whole entry): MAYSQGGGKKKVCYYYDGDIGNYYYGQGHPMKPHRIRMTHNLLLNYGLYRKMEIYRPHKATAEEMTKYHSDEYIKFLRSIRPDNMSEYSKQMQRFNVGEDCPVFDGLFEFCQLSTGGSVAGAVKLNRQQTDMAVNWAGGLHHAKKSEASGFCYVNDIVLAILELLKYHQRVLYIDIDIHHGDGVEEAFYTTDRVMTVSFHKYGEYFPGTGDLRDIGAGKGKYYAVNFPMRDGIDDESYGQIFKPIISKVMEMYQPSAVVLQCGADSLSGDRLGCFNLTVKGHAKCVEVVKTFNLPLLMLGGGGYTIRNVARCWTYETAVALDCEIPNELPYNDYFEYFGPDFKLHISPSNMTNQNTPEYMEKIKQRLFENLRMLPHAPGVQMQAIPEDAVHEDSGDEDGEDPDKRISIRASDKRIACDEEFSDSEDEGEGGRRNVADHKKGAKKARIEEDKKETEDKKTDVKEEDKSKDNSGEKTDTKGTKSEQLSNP

Regarding `CCCCCCNNC(=O)c1ccc(-c2ccc(CNC(C)=O)cc2)cc1`, the half-maximal inhibitory concentration (IC50) on Histone deacetylase 2 was 12 µM; in [3] it was above 20 µM; on Histone deacetylase 1, 1.8 µM; at Histone deacetylase 4, above 20 µM. The inhibition result in data set [1], in data set [4], in [5], in data set [8] and in data set [14] was “Active” in each case. In addition, the Activity result in data set [2] and in [12] was “Non-Toxic” throughout. Further, the outcome (in data set [6]; in the data set with Mus musculus [9]; in the data set with Mus musculus [13]) was Active. Besides, the remaining at 72 h in data set [7] came out at 103%. Besides, the inhibition entry in data set [10], in data set [11] and in data set [15] was “Dde” each time. The remaining at 48 h in data set [16] was determined as 104%.
